In patent EP0193637A1, “Use for the improvement or treatment of various diseases associated with cerebrovascular damages” (Yoshitomi Pharmaceutical Industries, Ltd., priority 1985, dated 1986):
Structures can show the parent of a compound that is named as a salt. Marks after values point to notes of the source that are not given here.

Key:
[1] = system: cerebral energy state in KCN-induced anoxia mice; experiment: Cerebral energy state in KCN-induced anoxia mice; type: in vivo; conditions: brain, p<0.01 vs. control; for ADP / AMP / ATP / Glucose / Lactate / P-creatine: Compound A i.p.; for ECP (Energy charge potential): ECP = ATP + 0.5xADP / ATP + ADP + AMP
Protocol: Male ddY-mice weighing 22-26 g were used. Compound A was dissolved in 0.5 % methylcellulose solution and injected intraperitoneally. After administration, 2.5 mg/kg of KCN in saline was injected intravenously. The animals were frozen in liquid nitrogen at 30 or 120 seconds laterm After removing and weighing, the frozen cerebrums were powdered.
According to the procedure by Lowry, O. H. et al described in "A flexible system of enzymatic analysis" (Academic press 1978) or by Yasuda et al described in Arch. Int. Pharmacodyn., vol. 242, p. 77-85 (1979), contents of Phosphocreatine (P-creatine), ATP, ADP, AMP, glucose and lactate in brain were determined. Concentrations (µ moles/g of brain) were calculated. Student's t-test was used in the statical analysis of the results.

CO2-induced amnesia = experiment: CO2-induced amnesia, one trial step-through passive avoidance response; type: in vivo, mice; conditions: 5 mg/kg i.p. immediately after CO2, test 24 hours after training, up to 600 seconds, mean ± standard error, p<0.01 vs. CO2-vehicle control
Source text: (§1) Male ddY-mice, weighing 19-25 g were used. The test apparatus consisted of a two-compartment avoidance box with a large 10x23x20 cm compartment illuminated by a 40W bulb, and a. small 14x14x20 cm shock compartment, painted black, with a floor made of metal rods 6 mm apart through which a foot shock (FS, 0.25 mA, 2 seconds) could be delivered. The two compartments were separated by a guillotine door.
(§2) The training procedure consisted of placing the mouse in the center of the large compartment. Within 20 to 50 seconds the animal entered the small compartment and was immediately given FS, and removed from the compartment. The animals were exposed to C02 for 8 seconds or given an electroconvulsive shock (ECS, 30 mA, 0.5 seconds) immediately after FS, or were injected with an amnestic agent scopolamine (SCO, 3 mg/kg i.p.) 20 minutes before FS.
(§3) The testing procedure consisted of placing the animal in the large compartment as above and noting the latency to enter the dark compartment up to 600 seconds. The training-to-test interval was 24 hours. Compound A or vehicle (0.5 % methylcellulose) was injected intraperitoneally immediately after exposure to C02 or ECS. For the scopolamine induced amnesia model, they were injected intraperitoneally immediately after FS. Thirty mice were used per test group.

normabaric hypoxia = experiment: Normobaric hypoxia, time to respiratory failure; type: in vivo, mice; conditions: 30 mg/kg i.p., nitrogen and oxygen (96:4), mean ± standard error, p<0.01 vs. control
Protocol: The experiment was performed according to the method by Yasuda et al described in Arch. Int. Pharmacolodyn., vol. 233, p. 136-144 (1978).
Three male ddY-mice were introduced into a 300 ml glass container in which circulated a current of a gas mixture of nitrogen and oxygen (96:4) at the rate of about 51/minutes. The time to respiratory failure was recorded.

Acute toxicity in mice = conditions: mouse, in vivo, po, one week-observation
Protocol: (§4) Compound A was orally administered to male Wistar-rats weighing about 200 g and male ddY-mice weighing 20-25 g. After one week-observation, the LD50 value (mg/kg) was measured.

ECS = experiment: Electroconvulsive shock (ECS) induced amnesia, one trial step-through passive avoidance response; type: in vivo, mice; conditions: ECS-induced amnesia (30 mA, 0.5 seconds); 5 mg/kg i.p. immediately after ECS; test 24 hours after training; mean ± standard error; p<0.05 vs. ECS-vehicle control
Source text: as §1, §2, §3

[2] = system: 2-deoxy-D-glucose uptake into rat brain; experiment: Chronic administration, 2-deoxy-D-glucose uptake into rat brain; type: in vivo; conditions: 10 mg/kg i.p. once daily for 14 days; for dpm/mg tissue dpm/µl serum: 3H-2-deoxy-D-glucose 27 hours after last administration, mean ± standard error, p<0.05 vs. control; for dpm/mg tissue dpm/µl serum (Δ%): change vs. control
Protocol: 2-deoxy-D-glucose uptake into rat brain Compound A was administered intraperitoneally to male Wistar-rat once daily for 14 days. ^3H-2-deoxy-D-glucose (40 µCi/kg, i.p.) was injected to rats 27 hours after the last administration of Compound A. Fifteen minuts after the injection of 3H-2-deoxy-D-glucose, the animals were decapitated and blood from trunk was collected simultaneously. The brains were dissected into five regions. Radioactivity in the brain sample and serum was counted using Soluene-350 and toluene scintillator. […] Each value represents the mean ± standard error.

[3] = system: scopolamine induced amnesia; experiment: Scopolamine induced amnesia, one trial step-through passive avoidance response; type: in vivo, mice; conditions: scopolamine (3 mg/kg i.p.) induced amnesia; 5 mg/kg i.p. immediately after foot shock; test 24 hours after training; mean ± standard error; p<0.05 vs. SCO-vehicle control
Source text: as §1, §2, §3

Acute toxicity in rats = conditions: rat, in vivo, po, one week-observation
Protocol: as §4

KCN-induced coma = experiment: KCN-induced coma, recovery of righting reflex; type: in vivo, mice; conditions: values are log t, 10 mg/kg i.p. 30 minutes prior to KCN 1.8 mg/kg i.v., p<0.01 vs. control
Protocol: Male dd-mice were intraperitoneally injected with Compound A 30 minutes prior to the intravenous injection of 1.8 mg/kg of KCN-saline solution. The time to recovery of righting reflex, coma time, was determined.

KCN-induced mortality = experiment: KCN-induced mortality; type: in vivo, mice; conditions: 30 mg/kg i.p. 30 minutes before KCN 2.5 mg/kg i.v.
[4] = 30 sec. after KCN 2.5mg/kg i.v.
[5] = 120 sec. after KCN 2.5mg/kg i.v.

With `c1csc(Cc2ccccc2OCC2CNCCO2)c1` (stereo not drawn) [Compound A, 2-(2-(2-thienylmethyl)phenoxymetyl)morpholine maleate] the ADP [1, 4] was 0.599 ± 0.020 µmol/g of wet tissue, the AMP [1, 4] was 0.107 ± 0.009 µmol/g of wet tissue and the ATP [1, 4] was 2.62 ± 0.07 µmol/g of wet tissue. For the same compound, the Glucose [1, 4] was 1.25 ± 0.11 µmol/g of wet tissue, the Lactate [1, 4] was 4.92 ± 0.17 µmol/g of wet tissue and the P-creatine [1, 4] was 2.52 ± 0.13 µmol/g of wet tissue. For the same compound, the “ECP (Energy charge potential)” value [1, 4] was 0.880 ± 0.004, the ADP [1, 5] was 0.509 ± 0.023 µmol/g of wet tissue and the AMP [1, 5] was 0.044 ± 0.005 µmol/g of wet tissue. For the same compound, the ATP [1, 5] was 2.60 ± 0.02 µmol/g of wet tissue, the Glucose [1, 5] was 0.64 ± 0.04 µmol/g of wet tissue and the Lactate [1, 5] was 7.42 ± 0.42 µmol/g of wet tissue. For the same compound, the P-creatine [1, 5] was 2.40 ± 0.09 µmol/g of wet tissue, the “ECP (Energy charge potential)” value [1, 5] was 0.905 ± 0.004 and the Latency (CO2-induced amnesia) was 324.5 ± 37.1 s. The Survival time (normabaric hypoxia) was 3.87 ± 0.32 min, the LD50 at 168 h (Acute toxicity in mice) was 716 mg/kg and the Latency (ECS) was 357.5 ± 46.5 s. The “dpm/mg tissue dpm/µl serum” value ([2]; Hippocampus) was 0.90 ± 0.07, the “dpm/mg tissue dpm/µl serum (Δ%)” value ([2]; Hippocampus) was “+20%” and the “dpm/mg tissue dpm/µl serum” value ([2]; Parietal cortex) was 1.27 ± 0.11. The “dpm/mg tissue dpm/µl serum (Δ%)” value ([2]; Parietal cortex) was “+21%”, the Latency [3] was 169.6 ± 26.7 s and the LD50 at 168 h (Acute toxicity in rats) was 1710 mg/kg. For the same compound, the “Coma time (sec.) (log t ± S.E.)” value (KCN-induced coma) was 1.95 ± 0.039 sec, the Lethality (KCN-induced mortality) was 0 and the “Survival animals/ animals used” value (KCN-induced mortality; p<0.01 vs. control) was 10/10**.
